Three molecules from US20260207604A1, “COMPOUND AND USE THEREOF” (ONQUALITY PHARMACEUTICALS CHINA LTD., priority 2022, published 2026) can be followed below.

For experiment [1], the system named is Irinotecan-induced diarrhea model. Nature of the experiment: Irinotecan-induced diarrhea model. The following applies: irinotecan 230 mg/kg once a day, 1 day, mice. It counts as in vivo, Balb/c mice. The source says:
Irinotecan-induced diarrhea and/or constipation models were employed as additional in vivo experimental models to evaluate the activity of the compounds of the present application.
Balb/c mice (20-25 g, 7-8 weeks old, Jihui) were acclimated for one week and then randomly assigned to 3 groups (n=10 per group): control group, irinotecan group, and CDK inhibitor group. Control group: received the same vehicle as the CDK inhibitor group by oral gavage, followed by injection of the same vehicle as the irinotecan group; irinotecan group: received the same vehicle by oral gavage as the CDK inhibitor group, followed by injection of irinotecan; CDK inhibitor group: received oral administration of the CDK inhibitor, followed by injection of irinotecan.
In the irinotecan group, approximately 6 to 9 out of 10 mice developed diarrhea. From Day 1 to Day 7, the severity of diarrhea in each mouse was evaluated using the following scoring criteria:
The diarrhea scoring system was based on the method by Akinobu Kurita (Cancer Chemother Pharmacol 2000; 46:211-20), Grade 0: normal stool; Grade 1: mild diarrhea, slightly soft stool and wet stool; Grade 2: moderate diarrhea, loose stool with slight perianal staining; Grade 3: severe diarrhea, loose watery stool with severe perianal staining. Calculate the diarrhea Relief rate of compound treatment. Relief rate (%)=(diarrhea score of irinotecan group−diarrhea score of CDK inhibitor group)/diarrhea score of irinotecan group×100%.

For another experiment, the target named is CDK9/cyclin T (Homo sapiens, UniProt P50750). Nature of the experiment: KinaseProfile radiometric protein kinase assay, CDK9/cyclin T. It counts as biochemical. The procedure:
(§1) The KinaseProfile radiometric protein kinase assay was used to evaluate the inhibitory activity of the compounds against CDK2/cyclin E, CDK4/cyclin D, CDK6/cyclin D, CDK7/cyclin H and CDK9/cyclin T.
(§2) The compounds were prepared in 100% DMSO at a final 50× stock concentration. The working stock solution was added as the first component to the assay wells. CDK2/cyclin E, CDK4/cyclin D, CDK6/cyclin D, CDK7/cyclin H, and CDK9/cyclin T were added in their respective kinase buffers: (CDK4: 8 mM MOPS pH 7.0, 0.2 mM EDTA, 0.03% BSA, 0.03% Tween 20, 20 mM DTT, and 0.2 mg/ml Rb fragment, 10 mM Magnesium acetate; CDK2, CDK6: 8 mM MOPS pH 7.0, 0.2 mM EDTA, 0.1 mg/mL histone H1, 10 mM Magnesium acetate; CDK7: 8 mM MOPS pH 7.0, 0.2 mM EDTA, 500 μM peptide, 10 mM Magnesium acetate; CDK9: 8 mM MOPS pH 7.0, 0.2 mM EDTA, 100 μM […], 10 mM Magnesium acetate) and [γ-^33 P-ATP] was included in the reaction mixture. The reaction was initiated by the addition of the Mg/ATP mixture and incubated at room temperature for 40 minutes. The reaction was terminated by the addition of 0.5% phosphoric acid. Then, 10 μL of the reaction mixture was spotted onto P30 filter pads, washed four times (1 minute each) with 0.425% phosphoric acid, followed by a single wash with methanol. The pads were then dried and counted. The data were recorded, inhibition rates were calculated, and IC50 values were determined accordingly. Table 2 summarizes the in vitro enzymatic inhibitory activity of the compounds of the present application.

Another experiment deals with CDK2/cyclin E (Homo sapiens, UniProt P24941). Nature of the experiment: KinaseProfile radiometric protein kinase assay, CDK2/cyclin E. It counts as biochemical. Here is the method: as §1, §2
In the next experiment the target is CDK7/cyclin H (Homo sapiens, UniProt P50613). Nature of the experiment: KinaseProfile radiometric protein kinase assay, CDK7/cyclin H. It counts as biochemical. The procedure: as §1, §2
For the next experiment, the target named is CDK4/cyclin D (Homo sapiens, UniProt P11802). Nature of the experiment: KinaseProfile radiometric protein kinase assay, CDK4/cyclin D. It counts as biochemical. Here is the method: as §1, §2
Experiment [2] relates to 5-FU-induced diarrhea model. Nature of the experiment: 5-FU-induced diarrhea model, 5-FU 3-day model. The conditions noted are these: 5-FU 60 mg/kg once a day for 3 days, mice. It counts as in vivo, Balb/c mice. The procedure:
(§3) The 5-FU-induced diarrhea model was used as an experimental model of the present invention to evaluate the in vivo activity of the compounds.
Balb/c mice (20-25 g, 7-8 weeks old, Jihui) were acclimated for one week and then randomly assigned to 3 groups (n=10 per group): control group, 5-FU group, and CDK inhibitor group. […] […] […] From Day 1 to Day 7, diarrhea severity was assessed daily for each mouse according to the diarrhea scoring system.
(§4) The diarrhea scoring system was based on the method by Akinobu Kurita (Cancer Chemother Pharmacol 2000; 46:211-20), Grade 0: normal stool; Grade 1: mild diarrhea, slightly soft stool and wet stool; Grade 2: moderate diarrhea, loose stool with slight perianal staining; Grade 3: severe diarrhea, loose watery stool with severe perianal staining.
(§5) The diarrhea relief rate (%) was calculated as follows: […]

Experiment [3] has as its system 5-FU-induced diarrhea model. Nature of the experiment: 5-FU-induced diarrhea model, 5-FU 1-day model. It counts as in vivo, Balb/c mice. The following applies: 5-FU 175 mg/kg once a day, mice.
From the text: as §3
Balb/c mice (20-25 g, 7-8 weeks old, Jihui) were acclimated for one week and then randomly assigned to 3 groups (n=10 per group): control group, 5-FU group, and CDK inhibitor group. The control group received the same vehicle as the CDK inhibitor group by oral gavage, followed by injection of the same vehicle as the 5-FU group. The 5-FU group received the same vehicle by oral gavage as the CDK inhibitor group, followed by 5-FU injection. The CDK inhibitor group received oral administration of the CDK inhibitor, followed by 5-FU injection. From day 1 to day 7, the severity of diarrhea was assessed for each mouse according to the diarrhea scoring system.
as §4, §5

Setting [4] is: 5 mg/kg oral, 4 hours before and 8 hours after irinotecan.
Where [5] appears, read: 25 mg/kg oral, 6 hours before and 6 hours after irinotecan.
Where [6] appears, read: 50 mg/kg oral, 4 hours before and 8 hours after irinotecan.
[7] abbreviates: 100 mg/kg oral, 6 hours before and 6 hours after irinotecan.
Where [8] appears, read: 10 mg/kg oral twice a day for 3.5 days.
The mark [9] stands for this setting: 25 mg/kg oral twice a day for 3 days.
[10] abbreviates: 50 mg/kg oral twice a day for 3 days.
The mark [11] stands for this setting: 100 mg/kg oral twice a day for 3 days.
[12] abbreviates: 100 mg/kg oral twice a day for 3.5 days.
Where [13] appears, read: 10 mg/kg oral twice a day for 3 days.
The mark [14] stands for this setting: 25 mg/kg oral, 8 hours before 5-FU and 4 hours after 5-FU.

Sequence of CDK7/cyclin H (P50613 whole entry): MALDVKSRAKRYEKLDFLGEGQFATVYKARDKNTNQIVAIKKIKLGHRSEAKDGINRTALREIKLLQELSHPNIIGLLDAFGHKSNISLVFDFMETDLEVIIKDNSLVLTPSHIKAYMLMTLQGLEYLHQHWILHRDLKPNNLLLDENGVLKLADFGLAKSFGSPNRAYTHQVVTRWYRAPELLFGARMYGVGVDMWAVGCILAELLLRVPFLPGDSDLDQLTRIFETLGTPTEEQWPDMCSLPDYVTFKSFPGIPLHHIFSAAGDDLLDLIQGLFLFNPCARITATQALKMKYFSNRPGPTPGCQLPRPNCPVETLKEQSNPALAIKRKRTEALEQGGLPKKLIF
Sequence of CDK7/cyclin H (P51946 whole entry partner): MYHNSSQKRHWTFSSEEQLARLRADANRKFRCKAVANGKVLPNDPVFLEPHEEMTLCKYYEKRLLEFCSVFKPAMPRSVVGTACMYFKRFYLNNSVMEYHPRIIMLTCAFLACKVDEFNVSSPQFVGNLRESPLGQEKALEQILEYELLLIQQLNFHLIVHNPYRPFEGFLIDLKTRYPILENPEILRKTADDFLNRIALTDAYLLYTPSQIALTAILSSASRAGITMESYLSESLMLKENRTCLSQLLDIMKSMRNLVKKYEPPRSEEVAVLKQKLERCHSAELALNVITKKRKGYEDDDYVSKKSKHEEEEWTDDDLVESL
Sequence of CDK7/cyclin H (P51948 whole entry partner): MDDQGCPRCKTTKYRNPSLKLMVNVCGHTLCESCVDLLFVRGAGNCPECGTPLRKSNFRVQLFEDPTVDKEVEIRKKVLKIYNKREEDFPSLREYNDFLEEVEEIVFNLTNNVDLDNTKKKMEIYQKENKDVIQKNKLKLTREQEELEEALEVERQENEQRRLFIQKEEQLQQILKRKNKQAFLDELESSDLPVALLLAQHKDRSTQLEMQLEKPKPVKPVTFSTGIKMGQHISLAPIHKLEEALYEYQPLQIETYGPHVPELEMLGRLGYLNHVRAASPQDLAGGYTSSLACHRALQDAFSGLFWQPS
Sequence of CDK9/cyclin T (P50750 whole entry): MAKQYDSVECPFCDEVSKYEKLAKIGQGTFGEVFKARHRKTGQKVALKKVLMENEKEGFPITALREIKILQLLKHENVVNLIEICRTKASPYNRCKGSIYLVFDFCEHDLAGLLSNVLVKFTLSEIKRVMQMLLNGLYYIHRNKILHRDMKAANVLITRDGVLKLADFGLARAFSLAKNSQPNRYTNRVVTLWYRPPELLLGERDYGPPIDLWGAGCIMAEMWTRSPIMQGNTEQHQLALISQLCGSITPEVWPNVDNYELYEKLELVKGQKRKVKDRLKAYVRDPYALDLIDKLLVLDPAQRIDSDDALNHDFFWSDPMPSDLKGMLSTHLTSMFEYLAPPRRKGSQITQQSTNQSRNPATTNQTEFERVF
Sequence of CDK9/cyclin T (O60563 whole entry partner): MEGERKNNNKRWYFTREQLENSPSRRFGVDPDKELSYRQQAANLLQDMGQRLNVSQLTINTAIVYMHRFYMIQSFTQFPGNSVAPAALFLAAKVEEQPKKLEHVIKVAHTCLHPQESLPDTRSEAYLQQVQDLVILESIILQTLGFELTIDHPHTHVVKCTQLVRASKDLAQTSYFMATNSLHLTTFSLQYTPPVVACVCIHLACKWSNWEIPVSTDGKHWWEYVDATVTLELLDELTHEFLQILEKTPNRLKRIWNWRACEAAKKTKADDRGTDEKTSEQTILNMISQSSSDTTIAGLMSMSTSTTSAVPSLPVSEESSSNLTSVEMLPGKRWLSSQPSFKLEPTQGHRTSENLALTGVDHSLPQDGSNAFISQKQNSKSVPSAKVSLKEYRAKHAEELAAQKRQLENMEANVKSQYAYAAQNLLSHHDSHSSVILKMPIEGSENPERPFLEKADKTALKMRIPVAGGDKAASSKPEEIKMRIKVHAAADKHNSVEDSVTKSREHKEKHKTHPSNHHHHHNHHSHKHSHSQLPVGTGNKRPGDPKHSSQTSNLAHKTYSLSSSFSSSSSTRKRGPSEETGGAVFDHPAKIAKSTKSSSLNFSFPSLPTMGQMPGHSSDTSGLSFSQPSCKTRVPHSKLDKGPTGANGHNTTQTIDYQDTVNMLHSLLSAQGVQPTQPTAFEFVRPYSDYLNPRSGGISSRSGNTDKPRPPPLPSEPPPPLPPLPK
Sequence of CDK4/cyclin D (P11802 whole entry): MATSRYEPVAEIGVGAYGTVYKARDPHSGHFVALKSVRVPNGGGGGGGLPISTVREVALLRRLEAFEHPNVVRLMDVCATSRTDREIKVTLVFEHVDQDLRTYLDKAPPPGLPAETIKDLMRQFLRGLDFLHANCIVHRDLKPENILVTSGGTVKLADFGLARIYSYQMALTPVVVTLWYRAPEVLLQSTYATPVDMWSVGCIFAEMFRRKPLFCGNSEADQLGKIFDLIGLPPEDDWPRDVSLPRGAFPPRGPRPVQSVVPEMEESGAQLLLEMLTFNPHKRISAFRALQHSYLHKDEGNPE
Sequence of CDK4/cyclin D (P30281 whole entry partner): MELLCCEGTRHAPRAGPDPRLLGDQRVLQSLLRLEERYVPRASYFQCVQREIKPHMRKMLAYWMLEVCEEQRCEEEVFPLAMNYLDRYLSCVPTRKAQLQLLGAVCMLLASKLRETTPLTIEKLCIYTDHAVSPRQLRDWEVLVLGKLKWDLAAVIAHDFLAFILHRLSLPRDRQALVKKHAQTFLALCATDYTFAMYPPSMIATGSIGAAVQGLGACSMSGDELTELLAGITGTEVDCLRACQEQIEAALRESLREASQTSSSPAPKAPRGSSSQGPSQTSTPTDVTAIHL

For `CC(=O)c1c(C)c2c(n(C3CCCC3)c1=O)=NC(Nc1ccc(N3CCN(S(=O)(=O)NCCN)CC3)cn1)NC=2` (stereo not shown) [Compound 1], the “diarrhea relief rate” value in experiment [1] (setting [4]) came out at 30%; in experiment [1] (10 mg/kg oral, 6 hours before and 6 hours after irinotecan), 33.3%; in experiment [1] (setting [5]), 50%; in experiment [1] (setting [6]), 37.5%; in experiment [1] (100 mg/kg oral, 4 hours before and 8 hours after irinotecan), 30%; in experiment [1] (setting [7]), 20%. In addition, the diarrhea relief rate in experiment [2] (setting [8]) came out at 40%; in experiment [2] (setting [9]), 60%; in experiment [2] (setting [10]), 40%; in experiment [2] (75 mg/kg oral twice a day for 4 days), 55%; in experiment [2] (setting [11]), 50%; in experiment [2] (setting [12]) it was 40%. Moreover, the diarrhea relief rate in experiment [3] (5 mg/kg oral, 8 hours before 5-FU and 4 hours after 5-FU) amounted to 50%; in experiment [3] (10 mg/kg oral, 6 hours before and 6 hours after 5-FU), 40%; in experiment [3] (25 mg/kg oral, 12 hours before 5-FU), 85%; in experiment [3] (50 mg/kg oral, 8 hours before 5-FU and 4 hours after 5-FU), 60%; in experiment [3] (75 mg/kg oral, 6 hours before and 6 hours after 5-FU), 50%; in experiment [3] (100 mg/kg oral, 8 hours before 5-FU and 4 hours after 5-FU) it was 75%. Moreover, the concentration for half-maximal inhibition (IC50) on CDK9/cyclin T is above 1 µM; against CDK2/cyclin E it was above 10 µM; on CDK7/cyclin H it was above 10 µM; against CDK4/cyclin D, below 0.05 µM.
With `CC(=O)c1c(C)c2cnc(Nc3ccc(N4CCN(S(=O)(=O)NCC(C)N)CC4)cn3)nc2n(C2CCCC2)c1=O` (stereo not shown) [Compound 3], the “diarrhea relief rate” value in experiment [1] (setting [4]) is reported as 25%; in experiment [1] (25 mg/kg oral, 10 hours before and 2 hours after irinotecan), 60%; in experiment [1] (setting [6]), 70%; in experiment [1] (setting [7]) it was 50%; in experiment [2] (5 mg/kg oral twice a day for 4 days) it was 25%; in experiment [2] (setting [13]), 30%. The diarrhea relief rate in experiment [2] (setting [8]) is given as 40%; in experiment [2] (setting [10]), 40%; in experiment [2] (50 mg/kg oral twice a day for 3.5 days), 40%; in experiment [2] (setting [11]), 70%; in experiment [3] (10 mg/kg oral, 10 hours before 5-FU and 2 hours after 5-FU) it was 50%; in experiment [3] (25 mg/kg oral, 2 hours before 5-FU and 10 hours after 5-FU), 40%. In addition, the diarrhea relief rate in experiment [3] (setting [14]) is given as 60%; in experiment [3] (150 mg/kg oral, 12 hours before 5-FU and 0 hours after 5-FU), 50%. For the same molecule, the concentration for half-maximal inhibition (IC50) is above 3 µM against CDK9/cyclin T, above 10 µM on CDK2/cyclin E, above 10 µM at CDK7/cyclin H and below 0.05 µM against CDK4/cyclin D.
Take `CC(=O)c1c(C)c2cnc(Nc3ccc(N4CCN(S(=O)(=O)NCC(C)(C)N)CC4)cn3)nc2n(C2CCCC2)c1=O` [Compound 2]: the “diarrhea relief rate” value in experiment [1] (25 mg/kg oral, 4 hours before and 8 hours after irinotecan) came out at 70%; in experiment [1] (setting [5]) it was 60%; in experiment [1] (50 mg/kg oral, 8 hours before irinotecan and 4 hours after irinotecan), 75%; in experiment [1] (100 mg/kg oral, 12 hours before irinotecan), 50%; in experiment [2] (setting [13]), 25%; in experiment [2] (setting [9]), 40%. Moreover, the diarrhea relief rate in experiment [2] (25 mg/kg oral twice a day for 3.5 days) stood at 50%; in experiment [2] (setting [10]), 60%; in experiment [2] (50 mg/kg oral twice a day for 4 days) it was 40%; in experiment [2] (setting [12]), 50%; in experiment [3] (setting [14]) it was 60%; in experiment [3] (25 mg/kg oral, 12 hours before and 12 hours after 5-FU) it was 40%. The diarrhea relief rate is 60% in experiment [3] (50 mg/kg oral, 6 hours before and 6 hours after 5-FU); 40% in experiment [3] (100 mg/kg oral, 24 hours before 5-FU and 0 hours after 5-FU). For the same molecule, the IC50 was above 1 µM against CDK9/cyclin T, above 10 µM against CDK2/cyclin E, above 3 µM at CDK7/cyclin H and below 0.05 µM against CDK4/cyclin D.
